Values of other authors in patent US20190054051A1, “DOPA Formulations for Treatments of Parkinson's Disease” (The Board of Trustees of the Leland Stanford Junior …, priority 2017, published 2019).

What was measured:
[1] = cited from earlier work
animal models of PD = conditions: previously reported; cited from earlier work

C[C@@](Cc1ccc(O)c(O)c1)(NN)C(=O)O [Carbidopa, N-amino-α-methyl-3-hydroxy-L-tyrosine monohydrate]
solubility in water [1]: slightly soluble in water

NC(N)=Nc1nc(CSCCC(N)=NS(N)(=O)=O)cs1 [famotidine]
L-DOPA induced dyskinesia (dyskinetic behavior following DOPA treatment) (animal models of PD): decreased the dyskinetic behavior
